Data from ChEMBL document CHEMBL3045816, “Synthesis and antimicrobial screening of 5-(benzylidene)-3-phenylthiazolidin-4-one derivatives incorporating thiazole ring” (Med Chem Res, 2013).
Converted amounts (≈) assume the structure as drawn.

Assays:
Aspergillus clavatus = test: Antimicrobial activity against Aspergillus clavatus MTCC 1323 assessed as growth inhibition after 48 hr; assay type: functional; conditions: MTCC 1323, 48 h
Candida albicans = test: Antimicrobial activity against Candida albicans MTCC 227 assessed as growth inhibition after 48 hr; assay type: functional; conditions: MTCC 227, 48 h
Staphylococcus aureus = test: Antimicrobial activity against Staphylococcus aureus MTCC 96 assessed as growth inhibition after 24 hr by turbidimetric method; assay type: functional; conditions: MTCC 96, 24 h
Pseudomonas aeruginosa = test: Antimicrobial activity against Pseudomonas aeruginosa MTCC 1688 assessed as growth inhibition after 24 hr by turbidimetric method; assay type: functional; conditions: MTCC 1688, 24 h
Escherichia coli = test: Antimicrobial activity against Escherichia coli MTCC 443 assessed as growth inhibition after 24 hr by turbidimetric method; assay type: functional; conditions: MTCC 443, 24 h
Streptococcus pyogenes = test: Antimicrobial activity against Streptococcus pyogenes MTCC 442 assessed as growth inhibition after 24 hr by turbidimetric method; assay type: functional; conditions: MTCC 442, 24 h
Aspergillus niger = test: Antimicrobial activity against Aspergillus niger MTCC 282 assessed as growth inhibition after 48 hr; assay type: functional; conditions: MTCC 282, 48 h
HepG2 = test: Cytotoxicity against Homo sapiens (human) HepG2 cells by SRB assay; assay type: cell-based
HL-60 = test: Cytotoxicity against Homo sapiens (human) HL60 cells by SRB assay; assay type: cell-based
A549 = test: Cytotoxicity against Homo sapiens (human) A549 cells by SRB assay; assay type: cell-based

Row | SMILES | MIC (Aspergillus clavatus) [µg/mL] | MIC (Candida albicans) [µg/mL] | MIC (Staphylococcus aureus) [µg/mL] | MIC (Pseudomonas aeruginosa) [µg/mL] | MIC (Escherichia coli) [µg/mL] | MIC (Streptococcus pyogenes) [µg/mL] | MIC (Aspergillus niger) [µg/mL] | Activity (HepG2) | Activity (HL-60) | Activity (A549)
1 | COc1ccc(C(=O)Nc2nc(C)c(C(=O)NNC(=S)Nc3ccccc3)s2)cc1 | > 1000 | 1000 (≈ 2260 µM) | 500 (≈ 1130 µM) | 500 (≈ 1130 µM) | 500 (≈ 1130 µM) | 500 (≈ 1130 µM) | 1000 (≈ 2260 µM) |  |  | 
2 | COc1ccc(C(=O)Nc2nc(C)c(C(=O)N/N=C3\S/C(=C\c4cccc(OC)c4)C(=O)N3c3ccccc3)s2)cc1 | 250 (≈ 417 µM) | 500 (≈ 834 µM) | 250 (≈ 417 µM) | 250 (≈ 417 µM) | 50 (≈ 83.4 µM) | 250 (≈ 417 µM) | 250 (≈ 417 µM) |  |  | 
3 | COc1ccc(C(=O)Nc2nc(C)c(C(=O)N/N=C3\S/C(=C\c4ccc([N+](=O)[O-])cc4)C(=O)N3c3ccccc3)s2)cc1 | 500 (≈ 813 µM) | 500 (≈ 813 µM) | 500 (≈ 813 µM) | 500 (≈ 813 µM) | 250 (≈ 407 µM) | 500 (≈ 813 µM) | 500 (≈ 813 µM) |  |  | 
4 | COc1ccc(C(=O)Nc2nc(C)c(C(=O)N/N=C3\S/C(=C\c4ccccc4Cl)C(=O)N3c3ccccc3)s2)cc1 | 250 (≈ 414 µM) | 500 (≈ 828 µM) | 250 (≈ 414 µM) | 250 (≈ 414 µM) | 250 (≈ 414 µM) | 500 (≈ 828 µM) | 250 (≈ 414 µM) |  |  | 
5 | COc1ccc(C(=O)Nc2nc(C)c(C(=O)N/N=C3\S/C(=C\c4ccccc4O)C(=O)N3c3ccccc3)s2)cc1 | 250 (≈ 427 µM) | 500 (≈ 854 µM) | 250 (≈ 427 µM) | 250 (≈ 427 µM) | 100 (≈ 171 µM) | 100 (≈ 171 µM) | 250 (≈ 427 µM) |  |  | 
6 | COc1ccc(C(=O)Nc2nc(C)c(C(=O)N/N=C3\S/C(=C\c4ccccc4OC)C(=O)N3c3ccccc3)s2)cc1 | 100 (≈ 167 µM) | 100 (≈ 167 µM) | 100 (≈ 167 µM) | 100 (≈ 167 µM) | 250 (≈ 417 µM) | 100 (≈ 167 µM) | 100 (≈ 167 µM) | Non-toxic | Non-toxic | Non-toxic
7 | COc1ccc(C(=O)Nc2nc(C)c(C(=O)N/N=C3\S/C(=C\c4ccccc4)C(=O)N3c3ccccc3)s2)cc1 | 500 (≈ 878 µM) | 500 (≈ 878 µM) | 500 (≈ 878 µM) | 500 (≈ 878 µM) | 250 (≈ 439 µM) | 250 (≈ 439 µM) | 500 (≈ 878 µM) |  |  | 
8 | COc1ccc(C(=O)Nc2nc(C)c(C(=O)N/N=C3\S/C(=C\c4ccccc4C)C(=O)N3c3ccccc3)s2)cc1 | 100 (≈ 171 µM) | 100 (≈ 171 µM) | 250 (≈ 428 µM) | 25 (≈ 42.8 µM) | 25 (≈ 42.8 µM) | 100 (≈ 171 µM) | 100 (≈ 171 µM) | Non-toxic | Non-toxic | Non-toxic
9 | COc1ccc(C(=O)Nc2nc(C)c(C(=O)N/N=C3\S/C(=C\c4ccc(C)cc4)C(=O)N3c3ccccc3)s2)cc1 | 25 (≈ 42.8 µM) | 100 (≈ 171 µM) | 50 (≈ 85.7 µM) | 50 (≈ 85.7 µM) | 12.5 (≈ 21.4 µM) | 50 (≈ 85.7 µM) | 25 (≈ 42.8 µM) | Non-toxic | Non-toxic | Non-toxic
10 | COc1ccc(/C=C2\S/C(=N\NC(=O)c3sc(NC(=O)c4ccc(OC)cc4)nc3C)N(c3ccccc3)C2=O)cc1 | 50 (≈ 83.4 µM) | 50 (≈ 83.4 µM) | 100 (≈ 167 µM) | 50 (≈ 83.4 µM) | 25 (≈ 41.7 µM) | 50 (≈ 83.4 µM) | 100 (≈ 167 µM) | Non-toxic | Non-toxic | Non-toxic
11 | COc1ccc(C(=O)Nc2nc(C)c(C(=O)N/N=C3\S/C(=C\c4ccc(O)cc4)C(=O)N3c3ccccc3)s2)cc1 | 250 (≈ 427 µM) | 250 (≈ 427 µM) | 50 (≈ 85.4 µM) | 250 (≈ 427 µM) | 50 (≈ 85.4 µM) | 250 (≈ 427 µM) | 100 (≈ 171 µM) | Non-toxic | Non-toxic | Non-toxic
12 | COc1ccc(C(=O)Nc2nc(C)c(C(=O)N/N=C3\S/C(=C\c4cccc(C)c4)C(=O)N3c3ccccc3)s2)cc1 | 250 (≈ 428 µM) | 250 (≈ 428 µM) | 250 (≈ 428 µM) | 250 (≈ 428 µM) | 100 (≈ 171 µM) | 100 (≈ 171 µM) | 250 (≈ 428 µM) |  |  | 
13 | O=C(O)c1cn(C2CC2)c2cc(N3CCNCC3)c(F)cc2c1=O [CIPROFLOXACIN] |  |  | 50 (≈ 151 µM) |  | 25 (≈ 75.4 µM) | 50 (≈ 151 µM) |  |  |  | 
14 | COc1ccc(C(=O)Nc2nc(C)c(C(=O)N/N=C3\S/C(=C\c4ccc(F)cc4)C(=O)N3c3ccccc3)s2)cc1 | 500 (≈ 851 µM) | 500 (≈ 851 µM) | 500 (≈ 851 µM) | 250 (≈ 425 µM) | 500 (≈ 851 µM) | 250 (≈ 425 µM) | 250 (≈ 425 µM) |  |  | 
15 | COC1=CC(=O)C[C@@H](C)[C@]12Oc1c(Cl)c(OC)cc(OC)c1C2=O [GRISEOFULVIN] | 100 (≈ 283 µM) | 500 (≈ 1420 µM) |  |  |  |  | 100 (≈ 283 µM) |  |  | 
16 | COc1ccc(C(=O)Nc2nc(C)c(C(=O)N/N=C3\SCC(=O)N3c3ccccc3)s2)cc1 | 250 (≈ 519 µM) | 1000 (≈ 2080 µM) | 500 (≈ 1040 µM) | 500 (≈ 1040 µM) | 250 (≈ 519 µM) | 500 (≈ 1040 µM) | 1000 (≈ 2080 µM) |  |  | 
17 | COc1ccc(C(=O)Nc2nc(C)c(C(=O)N/N=C3\S/C(=C\c4ccc(Cl)cc4)C(=O)N3c3ccccc3)s2)cc1 | 500 (≈ 828 µM) | 500 (≈ 828 µM) | 250 (≈ 414 µM) | 500 (≈ 828 µM) | 500 (≈ 828 µM) | 500 (≈ 828 µM) | 500 (≈ 828 µM) |  |  | 
18 | COc1ccc(C(=O)Nc2nc(C)c(C(=O)NN)s2)cc1 | 1000 (≈ 3260 µM) | 1000 (≈ 3260 µM) | > 1000 | 1000 (≈ 3260 µM) | > 1000 | 1000 (≈ 3260 µM) | > 1000 |  |  | 
19 | COc1ccc(C(=O)Nc2nc(C)c(C(=O)N/N=C3\S/C(=C\c4cccc(O)c4)C(=O)N3c3ccccc3)s2)cc1 | 100 (≈ 171 µM) | 500 (≈ 854 µM) | 100 (≈ 171 µM) | 100 (≈ 171 µM) | 100 (≈ 171 µM) | 250 (≈ 427 µM) | 250 (≈ 427 µM) |  |  | 
20 | COc1ccc(C(=O)Nc2nc(C)c(C(=O)N/N=C3\S/C(=C\c4ccccc4[N+](=O)[O-])C(=O)N3c3ccccc3)s2)cc1 | 250 (≈ 407 µM) | 1000 (≈ 1630 µM) | 500 (≈ 813 µM) | 250 (≈ 407 µM) | 500 (≈ 813 µM) | 250 (≈ 407 µM) | 250 (≈ 407 µM) |  |  | 
